# Results from paper PMC8103899, “Allyl Isothiocyanate: A TAS2R38 Receptor-Dependent Immune Modulator at the Interface Between Personalized Medicine and Nutrition” (Frontiers in Immunology, 2021).
# What was measured:
# [1] = test system: TAS2R38; design: method as in PMID 23041624; conditions: sinonasal cells, TAS2R38 genotype dependent; cited from earlier work
# [2] = target: TRPV1 (Homo sapiens, UniProt Q8NER1); test: Calcium flux in PAV/PAV monocytes after TRPV1 antagonist pre-treatment before AITC; type: cell-based
# Sequence of TRPV1 (Q8NER1 whole entry): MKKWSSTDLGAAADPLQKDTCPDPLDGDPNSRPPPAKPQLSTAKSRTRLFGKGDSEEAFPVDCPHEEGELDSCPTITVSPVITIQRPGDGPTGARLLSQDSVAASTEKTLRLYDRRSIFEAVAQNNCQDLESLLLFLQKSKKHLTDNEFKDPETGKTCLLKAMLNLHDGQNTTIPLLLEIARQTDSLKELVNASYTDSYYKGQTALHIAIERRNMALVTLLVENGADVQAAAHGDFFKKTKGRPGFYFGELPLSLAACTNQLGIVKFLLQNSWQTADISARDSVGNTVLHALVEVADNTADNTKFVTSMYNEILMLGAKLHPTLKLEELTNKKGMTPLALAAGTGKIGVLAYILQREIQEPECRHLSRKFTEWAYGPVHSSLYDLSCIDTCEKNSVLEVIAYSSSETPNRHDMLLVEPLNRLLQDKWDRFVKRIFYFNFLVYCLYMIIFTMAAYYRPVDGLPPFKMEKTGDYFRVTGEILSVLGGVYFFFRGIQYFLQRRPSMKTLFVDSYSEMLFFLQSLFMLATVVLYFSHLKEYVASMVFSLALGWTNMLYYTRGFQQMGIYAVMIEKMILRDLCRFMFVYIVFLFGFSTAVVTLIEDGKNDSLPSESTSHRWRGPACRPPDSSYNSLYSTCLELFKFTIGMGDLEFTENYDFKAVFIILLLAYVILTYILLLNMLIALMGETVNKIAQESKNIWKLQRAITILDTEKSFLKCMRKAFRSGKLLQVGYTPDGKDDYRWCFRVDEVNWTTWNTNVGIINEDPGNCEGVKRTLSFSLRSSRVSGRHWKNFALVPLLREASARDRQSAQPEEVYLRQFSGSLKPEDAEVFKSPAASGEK
# Experimental: Baseline fluorescence was recorded for 60 sec.
# [3] = Human food intervention: AITC metabolite plasma levels after mustard intake (LC-ESI-MS/MS); type: in vivo; conditions: for detection in plasma: human volunteers after mustard preparation (data not shown); for blood plasma level: human volunteers
# Experimental: AITC metabolite quantification was carried out in blood plasma samples derived from an intervention study at the University Medical Center in Freiburg, Germany. Samples were from 4 healthy young adults (3 females, 1 male, aged between 30-40 years) having a normal BMI, and were non-smokers. Each subject consumed one time 10 g of a commercially available mustard preparation ([…] Munich, Germany) containing 24.74 ± 1.76 μmol/g fresh weight preformed AITC on an empty stomach with optional consumption of white bread. The intervention was preceded by a 48 h wash-out phase consisting of a glucosinolate/ITC-free diet. After 30 min and optionally 60 min, blood was collected by venipuncture in serum tubes and centrifuged at 2000g for 10 min, 4°C to obtain serum. Subsequently, TFA was added and the samples frozen at -80°C. The preparation of serum samples (300 μL serum and 100 μL TFA) was conducted as described by Kühn et al. ([37]). The frozen samples were thawed, vortexed (1 min) and centrifuged (4 °C, 10 min, 20.854 x g). The supernatant was transferred to SPE cartridges. Prior to transferring, SPE cartridges were conditioned with acetonitrile (ACN, 3 mL) and equilibrated with water (3 mL). After sample application, the cartridges were washed with formic acid (FA, 3 mL, 0.1% in water) and the metabolites were eluted with FA (3 mL, 0.1% in ACN:water, 90:10, v/v). […] The samples were re-dissolved in 100 μL FA (0.1% in ACN:water, 90:10, v/v). Sample aliquots of 5 μL were injected into the LC-ESI-MS/MS system. LC-ESI-MS/MS analysis was performed on an API4000 triple quadrupole mass spectrometer (AB Sciex Germany GmbH, Darmstadt, Germany) equipped with an Agilent 1200 LC system (Agilent Technologies Deutschland GmbH & Co. KG, Waldbronn, Germany). For data acquisition and processing the software Analyst 1.6.1 (AB Sciex Germany GmbH, Darmstadt, Germany) was used. […] AITC-CysGly; AITC-Cys; AITC-NAC) was conducted according to Platz et al. ([38]) with minor modifications. The separation was performed on a Kinetex C18 column (Phenomenex, 5 μm, 100 Å, 150 x 2.1 mm). The autosampler operated at 4°C and the set temperature for the oven was 20°C. A constant flow of 300 μL/min was used for the mobile phase which consisted of 0.1% FA in water (A) and 0.1% FA in ACN (B). […] In order to equilibrate the column, A was increased to 90% and held for 5 min. The relevant MS parameters include an entrance potential of -10 V, a desolvation gas temperature of 450°C, ion spray potential of -4.5 kV, gas 1 and gas 2 at 46 psi and a curtain gas pressure at 10 psi.
# [4] = test system: TAS2R38-PAV receptor; design: method as in PMID 20022913; conditions: cited from earlier work
# [5] = target: PLC-β2 (Homo sapiens, UniProt Q00722); test: Calcium flux in PAV/PAV monocytes after PLC-β2 antagonist pre-treatment before AITC; conditions: cell pretreatment with U73122 for 30 min
# Sequence of PLC-β2 (Q00722 whole entry): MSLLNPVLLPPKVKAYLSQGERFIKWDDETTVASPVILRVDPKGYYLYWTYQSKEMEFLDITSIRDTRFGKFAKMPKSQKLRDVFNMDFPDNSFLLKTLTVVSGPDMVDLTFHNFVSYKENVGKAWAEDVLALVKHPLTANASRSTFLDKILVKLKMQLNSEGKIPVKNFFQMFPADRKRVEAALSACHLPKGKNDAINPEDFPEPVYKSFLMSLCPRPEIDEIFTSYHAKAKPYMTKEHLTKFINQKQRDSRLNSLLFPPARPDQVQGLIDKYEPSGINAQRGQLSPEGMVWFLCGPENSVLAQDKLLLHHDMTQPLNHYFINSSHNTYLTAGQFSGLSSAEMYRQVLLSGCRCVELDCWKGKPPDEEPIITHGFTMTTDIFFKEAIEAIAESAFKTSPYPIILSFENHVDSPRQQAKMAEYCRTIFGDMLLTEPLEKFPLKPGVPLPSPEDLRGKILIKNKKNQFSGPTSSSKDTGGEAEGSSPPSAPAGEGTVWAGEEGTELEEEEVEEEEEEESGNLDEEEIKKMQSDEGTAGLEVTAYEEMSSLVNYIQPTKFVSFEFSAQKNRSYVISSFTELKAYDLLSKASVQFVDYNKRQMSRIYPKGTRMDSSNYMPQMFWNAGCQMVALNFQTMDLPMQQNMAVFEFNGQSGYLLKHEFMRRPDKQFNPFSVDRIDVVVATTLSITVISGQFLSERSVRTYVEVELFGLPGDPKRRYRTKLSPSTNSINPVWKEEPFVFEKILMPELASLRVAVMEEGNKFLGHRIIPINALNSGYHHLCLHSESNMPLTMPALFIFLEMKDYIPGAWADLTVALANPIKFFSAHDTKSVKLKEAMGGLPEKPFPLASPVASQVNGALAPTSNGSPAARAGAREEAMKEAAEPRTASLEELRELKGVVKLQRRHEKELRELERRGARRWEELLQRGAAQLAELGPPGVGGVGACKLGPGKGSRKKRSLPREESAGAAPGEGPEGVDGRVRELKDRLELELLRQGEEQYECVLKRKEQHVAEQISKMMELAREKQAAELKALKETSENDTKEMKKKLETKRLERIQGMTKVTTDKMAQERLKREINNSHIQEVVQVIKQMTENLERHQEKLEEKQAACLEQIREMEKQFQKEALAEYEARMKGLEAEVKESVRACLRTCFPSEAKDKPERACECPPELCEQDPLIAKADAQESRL
# [6] = test system: intracellular calcium release; design: method as in PMID 8393876; conditions: 1% DMSO; cited from earlier work
# [7] = target: T1, TAS2R38 receptor (Homo sapiens, UniProt P59533, A49P/I296V); test: Calcium flux assay in human PBMC (flow cytometry, Fluo-4 AM); conditions: human PAV/PAV monocytes
# T1 sequence (P59533 1-333 A49P/I296V): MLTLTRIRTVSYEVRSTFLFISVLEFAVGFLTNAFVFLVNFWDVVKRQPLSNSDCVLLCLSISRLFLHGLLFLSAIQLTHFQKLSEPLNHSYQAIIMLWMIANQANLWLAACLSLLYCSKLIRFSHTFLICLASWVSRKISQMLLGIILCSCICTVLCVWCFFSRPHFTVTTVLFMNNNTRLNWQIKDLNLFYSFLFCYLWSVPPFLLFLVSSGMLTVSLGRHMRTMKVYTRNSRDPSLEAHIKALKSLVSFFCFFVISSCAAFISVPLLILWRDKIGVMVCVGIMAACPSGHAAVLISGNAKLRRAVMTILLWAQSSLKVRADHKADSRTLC
# [8] = test system: TAS2R38-PAV; design: method as in PMID 28902853; conditions: transfected HEK293 cells (~0.9% DMSO solution), approximately; cited from earlier work
# [9] = test system: LPS stimulated leukocytes; conditions: cited from earlier work
# [10] = test system: sinonasal epithelial cells; design: method as in PMID 24531552; conditions: cited from earlier work
# [11] = test system: TRPA1; design: method as in PMID 21763756; conditions: calcium assays; cited from earlier work
# [12] = test system: extracellular calcium influx in monocytes; test: Calcium flux in PAV/PAV monocytes after EDTA pre-treatment before AITC; conditions: 0.5 mM EDTA
smiles,measurement,setting,value
NC(=S)Nc1ccccc1 [PTC],NO production,[1],stimulated
Oc1cc2c(cc1O)CN(C(=S)NCCc1ccc(Cl)cc1)CCC2 [capsazepine],effect on AITC mediated calcium release,"[2]; capsazepine pretreatment, 1 µM AITC",not effected
same,effect on AITC mediated calcium release,"[2]; pretreatment 10 µM capsazepine, stimulation with 100 µM AITC",reduction of AITC mediated calcium release
C=CCNC(=S)SC[C@H](NC(=O)CC[C@H](N)C(=O)O)C(=O)NCC(=O)O [AITC-GSH],detection in plasma,[3],No other AITC metabolites (AITC-GSH or AITC-CG) could be detected
C=CCNC(=S)SC[C@H](NC(C)=O)C(=O)O [AITC-NAC],blood plasma level,[3]; 0.5 h after 10 g mustard preparation,836.7 ± 67.7 nM
same,blood plasma level,[3]; 1 h after 10 g mustard preparation,1001.0 ± 228.3 nM
C=CCC(=NOS(=O)(=O)O)S[C@@H]1O[C@H](CO)[C@@H](O)[C@H](O)[C@H]1O (stereo in doubt) [sinigrin],activation of TAS2R38 taster variant among 25 TAS2Rs,[4]; HEK293T-Gα16gust44 cells transiently transfected,selectively triggered the taster variant
COc1ccc2c(c1)CC[C@@H]1[C@@H]2CC[C@]2(C)[C@@H](NCCCCCCN3C(=O)C=CC3=O)CC[C@@H]12 [U73122],effect on AITC induced calcium release,[5],almost completely block
C=CCNC(=S)SC[C@H](N)C(=O)NCC(=O)O [AITC-CG],detection in plasma,[3],No other AITC metabolites (AITC-GSH or AITC-CG) could be detected
"C[S+](C)[O-] [DMSO, Dimethyl sulfoxide]",calcium release,[6],significant calcium release
same,effect on calcium release,[7]; 0.1% DMSO,no effect
same,mean calcium increase compared to untreated cells,"[7]; starting from 1.5% DMSO, not statistically significant",36%
same,threshold concentration,[8],> 125 mM
CC[N+](CC)(CC(=O)Nc1c(C)cccc1C)Cc1ccccc1 [denatonium],"multiple cytokine production, including TNF-α",[9],marked reduction
same,cytokine release,[10],marginal change
S=C=NCCc1ccccc1 [phenylethyl ITC],activation of the TAS2R38-PAV receptor,[4],activated
C[S@@+]([O-])CCCCN=C=S [L-sulforaphane],activation of the TAS2R38-PAV receptor,[4],did not
O=C(O)CN(CCN(CC(=O)O)CC(=O)O)CC(=O)O [EDTA],effect on calcium influx triggered by AITC,[12]; 1 µM AITC,did not impact
same,reduction in calcium flux,[12]; 100 µM AITC,67%
